Measurements taken from patent US12344614B2, “Benzodiazepine derivatives as GABA a GAMMA1 PAM” (Hoffmann-La Roche Inc., priority 2021, dated 2025).
Read-outs that look alike come from different tables or passages of the source.

Key:
h-GABA-A α2β2γ1 receptor = h-GABA-A α2β2γ1 receptor (Homo sapiens (Human), UniProt P47869+Q8N1C3); assay: Two-electrode voltage clamp electrophysiology in Xenopus oocytes expressing GABAA receptors; assay type: cell-based; settings: for Efficacy (GABA) %: % modulation of GABA EC20 = 100*(Fold increase−1), compound at 30-fold Ki α2β2γ1; for Fold increase h-GABA-A α2β2γ1 oocyte @ 30-fold Ki: Xenopus oocytes, GABA EC20, test compound at approx. 30-fold its Ki α2β2γ1
Experimental: Xenopus laevis oocytes at maturation stages V-VI were used for the expression of cloned mRNA encoding GABAA receptor subunits. Oocytes ready for RNA micro-injection were bought from Ecocyte, Castrop-Rauxel, Germany and stored in modified Barth's medium (composition in mM: NaCl 88, KCl 1, NaHCO3 2.4, HEPES 10, MgSO4 0.82, CaNO3 0.33, CaCl2 0.33, pH=7.5) at 20° C. until the experiment.
Oocytes were plated in 96-well plates for microinjection using the Roboinject automated instrument (MultiChannelSystems, Reutlingen, Germany). Approximately 50 nL of an aqueous solution containing the RNA transcripts for the subunits of the desired GABAA receptor subtype was injected into each oocyte. […] Oocytes were kept in modified Barth's medium (composition in mM: NaCl 88, KCl 1, NaHCO3 4, HEPES 10, MgSO4 0.82, CaNO3 0.33, CaCl, 0.33, pH=7.5) at 20° C. until the experiment.
Electrophysiological experiments were performed using the Roboocyte instrument (MultiChannelSystems, Reutlingen, Germany) on days 3 to 5 after the micro-injection of mRNA. During the experiment the oocytes were constantly superfused by a solution containing (in mM) NaCl 90, KCl 1, HEPES 5, MgCl2 1, CaCl2 1 (pH 7.4). Oocytes were impaled by two glass microelectrodes (resistance: 0.5-0.8 MΩ) which were filled with a solution containing KCl 1M+K-acetate 1.5 M and voltage-clamped to −80 mV. The recordings were performed at room temperature using the Roboocyte two-electrode voltage clamp system (Multichannelsystem). After an initial equilibration period of 1.5 min GABA was added for 1.5 min at a concentration evoking approximately 20% of a maximal current response (EC2O). After another rest interval of 2.5 min GABA was again added evoking a response of similar amplitude and shape. […] Current traces were recorded at a digitization rate of 10 Hz during and shortly before and after the GABA application.
Each compound and concentration was tested on at least 3 oocytes. Different oocytes were used for different compound concentrations.
For the analysis, the digitized current traces of the first and second GABA response were superimposed and, if necessary, rescaled to equal maximal amplitudes. The ratio between the two responses during the time interval of test compound application was calculated point by point. The extremum of the resulting “ratio trace” was taken as the efficacy (“Fold increase”) of the compound expressed as “% modulation of GABA EC20” (100*(Fold increase−1)).

[1] = molecular target: human GABAA α1β2γ1 receptor (Homo sapiens (Human), UniProt P14867+Q8N1C3); assay: Radioligand binding assay, competition for [3H]RO7239181, membranes from HEK293F cells

SMILES: COC1CN(C(=O)c2nc3n(n2)-c2ccc(C(F)(F)F)c(Cl)c2C(c2cc(O)ccc2F)=NC3)C1 [Example 16, [7-chloro-6-(2-fluoro-5-hydroxy-phenyl)-8-(trifluoromethyl)-4H-[1,2,4]triazolo[1,5-a][1,4]benzodiazepin-2-yl]-(3-methoxyazetidin-1-yl)methanone]
- Efficacy (GABA) % (h-GABA-A α2β2γ1 receptor): 48%
- Fold increase h-GABA-A α2β2γ1 oocyte @ 30-fold Ki (h-GABA-A α2β2γ1 receptor): 1.48
- Ki ([1]; [3H]RO7239181 20-30 nM, HEK293F membranes, 1 hour at 4° C., mean of two determinations, read-out: Ki h-GABAA α1β2γ1): 0.0114 µM

SMILES: Cc1cnc2n1-c1ccc(C(F)(F)F)c(Cl)c1C(c1nc(O)ccc1Cl)=N[C@H]2C [Example 26, 5-chloro-6-[(4S)-7-chloro-1,4-dimethyl-8-(trifluoromethyl)-4H-imidazo[1,2-a][1,4]benzodiazepin-6-yl]pyridin-2-ol]
- Efficacy (GABA) % (h-GABA-A α2β2γ1 receptor): 79%
- Fold increase h-GABA-A α2β2γ1 oocyte @ 30-fold Ki (h-GABA-A α2β2γ1 receptor): 1.79
- Ki [1]: 0.0205 µM

SMILES: Cc1nnc2n1-c1ccc(Cl)c(Cl)c1C(c1cc(O)ccc1F)=N[C@H]2C [Example 4, 4-fluoro-3-[(4S)-7,8-dichloro-1,4-dimethyl-4H-[1,2,4]triazolo[4,3-a][1,4]benzodiazepin-6-yl]phenol]
- Efficacy (GABA) % (h-GABA-A α2β2γ1 receptor): 33%
- Fold increase h-GABA-A α2β2γ1 oocyte @ 30-fold Ki (h-GABA-A α2β2γ1 receptor): 1.33
- Ki [1]: 0.00335 µM

SMILES: Cc1nnc2n1-c1ccc(C(F)(F)F)c(Cl)c1C(c1nc(O)ccc1Cl)=N[C@H]2C [Example 22, 5-chloro-6-[(4S)-7-chloro-1,4-dimethyl-8-(trifluoromethyl)-4H-[1,2,4]triazolo[4,3-a][1,4]benzodiazepin-6-yl]pyridin-2-ol]
- Efficacy (GABA) % (h-GABA-A α2β2γ1 receptor): 84%
- Fold increase h-GABA-A α2β2γ1 oocyte @ 30-fold Ki (h-GABA-A α2β2γ1 receptor): 1.84
- Ki [1]: 0.0425 µM

SMILES: Cc1nnc2n1-c1ccc(C(F)(F)F)c(Cl)c1C(c1cc(O)ccc1F)=NC2 [Example 9, 3-[7-chloro-1-methyl-8-(trifluoromethyl)-4H-[1,2,4]triazolo[4,3-a][1,4]benzodiazepin-6-yl]-4-fluoro-phenol]
- Efficacy (GABA) % (h-GABA-A α2β2γ1 receptor): 69%
- Fold increase h-GABA-A α2β2γ1 oocyte @ 30-fold Ki (h-GABA-A α2β2γ1 receptor): 1.69
- Ki [1]: 0.00845 µM
